Laboratory results as given in patent US20240139162A1, “Benzophenanthridine Alkaloids and Their Methods of Use” (Chengdu Anticancer Bioscience, LTD., priority 2019, published 2024).
Entries after “also recorded” stand apart in the source; their conditions may differ.

Columns and labels:
3T3 MEF cells = assay: IC50 in 3T3 MEF cells (Table 2); type: cell-based; conditions: Mus musculus, MEF, 72 h, 3T3 MEF, treatment 72 h; read-out: IC50
Method: (§1) Cells were split, plated in appropriate culture media and allowed to adhere. After 18 hours, corynoline and acetylcorynoline were added to a cell line selected from below. At 72 h or 96 h, MTT was added and at 75 h or 99 h, the A570 nm was recorded. The concentration ranged from 0.02 μM to 40 μM.
(§2) The effect of the compounds chelidonine and protopine on cell division was assessed similarly to corynoline and acetylcorynoline above. As described in Example 6 above, as cells enter and become arrested in mitosis, they detach from the plate surface and appear as rounded cells with a smooth surface membrane. RPE-MBC cells (ectopically expressing oncogenes MYC and Bcl2) were treated with DMSO, chelidonine and protopine, and compared against controls Michael's ketone (MK) and taxol.

RPE-Neo cells = assay: IC50 in RPE-Neo cells (Table 2); type: cell-based, human; conditions: Homo sapiens, 72 h, RPE-Neo, treatment 72 h; read-out: IC50
Method: as §1
The following RPE cell lines were used in these studies: RPE NEO, RPE MBH, RPE MBC, RPE MA, RPE MP, RPE MI, and RPE MYC Nick. This RPE series were derived from human retinal pigment epithelium and then stably transfected with an hTERT expression construct for immortalization. The resulting cell line was then engineered to overexpress the MYC oncogene (RPE-MYC) or a Neomycin selection marker gene (RPE-NEO). In RPE-MYC cells, a variety of other oncogenes such as Myr-AKT, BCL2, ID1 and PI3K^E45k were further introduced individually to generate the cell lines RPE MA, RPE MBC, RPE MI, RPE MP, respectively. As a control, H2BGFP was introduced into RPE-MYC cells to generate RPE MBH.
as §2

RPE MBC cells = assay: Spindle pole assembly by β-tubulin / Histone H3ser10P immunofluorescence; type: cell-based, human
Method: Microtubule assembly, specifically spindle pole assembly, was altered by treatment with acetylcorynoline. RPE MBC cells were treated with acetylcorynoline and Histone H3 Serine 10 Phosphorylation (Histone H3ser10p, shown in FIG. 4 and FIG. 5 in red), β-tubulin (green) and DNA (blue) was analyzed by immunofluorescence microscopy. Histone H3ser10P was used to determine the cells that were in early mitosis (e.g., prometaphase or metaphase). β-tubulin was used to examine microtubule localization and spindle assembly within the cells.
Similarly to corynoline and acetylcorynoline above, it was determined that microtubule assembly, specifically spindle pole assembly, was altered by treatment with chelidonine.

RPE-MBC cells = assay: Mitotic arrest (cell round-up, phospho-Histone H3) and polyploidy (DAPI) assay; type: cell-based, human
Method: For screening for bioactive fractions, cells were cultured in 96-well plates, and exposed to crude extracts, partially purified fractions or pure compounds at the concentrations indicated in the figure legends. Exposure was for 24 or 48 hours before analysis of cells for either an arrest in mitosis using an inverted microscope or for a change in DNA content after 4′,6′-diamidino-2-phenylindole (DAPI) staining by fluorescence microscopy.
Cells were cultured on coverslips in a 6-well plate, fixed with 4% paraformaldehyde and then permeabilized with 0.3% Triton X-100 in PBS. Primary antibody was detected with Texas-Red-conjugated secondary antibodies that were purchased from Jackson ImmunoResearch. After immunostaining, cells were mounted on microscope slides with 4′,6′-diamidino-2-phenylindole (DAPI)-containing Vectashield mounting solution (Vector Laboratories) for detection of fluorescence with an EVOS FL fluorescence microscope (ThermoFisher).
Cellular “round-up” was used as a surrogate marker for mitotic arrest and could easily be assayed using an inverted tissue culture microscope. […] Mitotic arrest was judged by cell round-up observed under an inverted tissue culture microscope 24 hours after exposing cells to the library.
As cells enter and become arrested in mitosis, they detach from the plate surface and appear as rounded cells with smooth surface membrane, distinct from detached cells that are undergoing programmed cell death. Simple visual screening method was used to assay thousands of extracts. […] To identify bioactive components that are able to interfere with mitosis, 3 kg of Corydalis longicalcarata rhizome were recollected and performed bioactivity-guided extraction, isolation, and purification. The air dried and powdered material was extracted with 70% ethanol assisted by exposure to ultrasonic waves.

Compound: CC(=O)O[C@H]1Cc2cc3c(cc2[C@H]2N(C)Cc4c(ccc5c4OCO5)[C@@]12C)OCO3 [Acetylcorynoline, (5bR,6S,12bR)-5b,6,7,12b,13,14-Hexahydro-5b,13-dimethyl-[1,3]benzodioxolo[5,6-c]-1,3-dioxolo[4,5-i]phenanthridin-6-ol 6-acetate]
- IC50 (3T3 MEF cells): 23 µM
- IC50 (RPE-Neo cells): > 40 µM
- cells in prometaphase (Histone H3ser10P staining) (RPE MBC cells; 6 hours of treatment): Numerous mitotic cells accumulated in prometaphase; also recorded: high numbers of cells arresting in prometaphase
- spindle formation (β-tubulin staining) (RPE MBC cells; 6 hours of treatment): monopolar spindles were formed; also recorded: abnormal spindle polarization in mitosis
- spindle formation (β-tubulin staining) (RPE MBC cells; 24 hours of treatment): multipolar spindles were formed; also recorded: multipolar spindle formation in mitosis
- polyploidy compared to DMSO control (RPE-MBC cells; 10 μM and 20 μM, 48 hours): polyploidy was induced
- mitotic arrest (RPE-MBC cells; 24 hours after treatment): can arrest mitosis within 24 hours of treatment; also recorded: Nearly all cells entered and arrested in mitosis
- polyploidy (DAPI staining) (RPE-MBC cells; 48 hours after treatment): induce polyploidy at 48 hours; also recorded: induced polyploidy; also recorded: Polyploidy was observed; also recorded: demonstrates polyploidy
- minimal effective concentration for mitotic arrest and polyploidy relative to corynoline (RPE-MBC cells; FIG. 15): 2 fold
- mitotic arrest and polyploidy, dependence on concentration (RPE-MBC cells; FIG. 15): concentration-dependent
- persistence of the arrest of cells in mitosis (RPE-MBC cells; within 48-hour treatment): transient
